Assay results as given in patent US4612185A, “Methods and compositions for enhancing magnetic resonance imaging” (Mallinckrodt, Inc., priority 1984, dated 1986).

Tests used:
mice = assay: Acute intravenous toxicity in mice, 7-day observation, LD50 by Litchfield and Wilcoxon; format: in vivo, mouse (Swiss ICR CD-1); conditions: for MORTALITIES/NUMBER TREATED / AVERAGE SURVIVOR WEEKLY BODY WEIGHT CHANGE: single intravenous; for MORTALITIES/NUMBER TREATED: 7 days; for AVERAGE SURVIVOR WEEKLY BODY WEIGHT CHANGE: survivors
Experimental: Sodium [2-(trifluoromethyl) benzamido] acetate was prepared as a 20% w/v solution in sterile water for injection and the pH was adjusted to 7.0 using 0.1 N HCl.
A total of 14 mice (7 male, 24.6-30.0 g; 7 females, 18.6-26.0 g; Swiss ICR CD-1, Charles River) were used. Animals were housed according to standard operating procedures and marked for identification with picric acid.
Groups of 2-3 mice received single intravenous injections of sodium [2-(trifluoromethyl)benzamido]acetate according to the followinq schedule:
Measured single doses were injected into the lateral tail vein at a rate of 1 ml/min. The animals were observed immediately after dosing and during the 7-day observation period for pharmacotoxic reactions. Recording of terminal body weights and general necrospy of the thoracic and abdominal organs was performed after 7 days. An LD50 value was calculated using the method of Litchfield and Wilcoxon (J. Pharmacol. Exp. Ther. 96:99,1949).

liver or kidney = assay: In vivo fluorine (19F) MR spectra of liver and kidney in anesthetized rabbit; conditions: 4 mmol F/kg intravenous, 1.9 Tesla
Source text: (§1) An anesthetized rabbit was placed in a 12 inch bore, 1.9 Tesla MRI magnet. An RF coil ([…], I.D., 4 cm, O.D.) was placed on the surface of the liver or a kidney which were excised surgically. Fluorine spectra were obtained following 4 mmol F/kg intravenous doses of a solution of sodium [2-(trifluoromethyl)benzamido]acetate (20%, w/v, 2.2 M F, of the compound).

[1] = system: liver, heart, kidney, skeletal muscle, spleen, blood and urine samples; assay: Fluorine analysis of rabbit tissue, blood and urine samples by MR spectroscopy; format: in vivo; conditions: 4 mmol F/kg intravenous, conclusion of experiment
Source text: as §1
At the conclusion of the experiment, the rabbit was killed and liver, heart, kidney, skeletal muscle, spleen, blood and urine samples were analyzed for fluorine by MR spectroscopy.

Which “MORTALITIES/NUMBER TREATED” value (mice; 1000 mg/kg) does the source give for `O=C([O-])CNC(=O)c1ccccc1C(F)(F)F.[Na+]` [sodium [2-(trifluoromethyl)benzamido]acetate] here?
The value was 0/2.

And the “AVERAGE SURVIVOR WEEKLY BODY WEIGHT CHANGE” value (mice; 1000 mg/kg)?
Its value is 0.1 g.

And the “MORTALITIES/NUMBER TREATED” value (mice; 2000 mg/kg)?
The value was 0/2.

What about the “AVERAGE SURVIVOR WEEKLY BODY WEIGHT CHANGE” value (mice; 2000 mg/kg) of the same compound?
The value was 2.2 g.

And the “MORTALITIES/NUMBER TREATED” value (mice; 4000 mg/kg)?
The value was 0/2.

And the “AVERAGE SURVIVOR WEEKLY BODY WEIGHT CHANGE” value (mice; 4000 mg/kg)?
Its value is 1.8 g.

What about the “MORTALITIES/NUMBER TREATED” value (mice; 6000 mg/kg) of the same compound?
Its value is 1/3.

And the “AVERAGE SURVIVOR WEEKLY BODY WEIGHT CHANGE” value (mice; 6000 mg/kg)?
Its value is 1.0 g.

And the “MORTALITIES/NUMBER TREATED” value (mice; 7000 mg/kg)?
Its value is 2/3.

And the “AVERAGE SURVIVOR WEEKLY BODY WEIGHT CHANGE” value (mice; 7000 mg/kg)?
The value was 2.7 g.

And the “MORTALITIES/NUMBER TREATED” value (mice; 8000 mg/kg)?
The value was 2/2.

What about the reactions preceding death (mice; intravenous, all deaths) of the same compound?
Its reactions preceding death is “mild convulsions”.

What about the “time of deaths after treatment” value (mice; intravenous, all deaths) of the same compound?
The value was no more than 10 min.

What about the “time after treatment within which all survivors appeared normal” value (mice; intravenous, all survivors) of the same compound?
Its value is no more than 5 h.

And the “toxic reactions (hyperactivity)” value (mice; intravenous, doses=2000 mg/kg (so in the source))?
Its value is “mild hyperactivity”.

What about the “toxic reactions (hypoactivity)” value (mice; intravenous, doses=4000 mg/kg (so in the source)) of the same compound?
The value was “dose-related hypoactivity”.

And the “body weight of one survivor, week after treatment” value (mice; intravenous, one survivor dosed with 1000 mg)?
The value was “body weight loss”.

And the “body weight of all other survivors” value (mice; intravenous, one week)?
Its value is “weight gains”.

And the “estimated mouse intravenous LD50” value (mice; mouse, intravenous, compound dose)?
The value was 6500 mg/kg.

And the intravenous toxicity profile (mice; summary statement of toxicity studies)?
Its intravenous toxicity profile is “extremely good intravenous toxicity profile”.

What about the necropsy findings (mice; thoracic and abdominal organs, following one week observation) of the same compound?
Its necropsy findings is “No abnormalities were observed”.

What about the “fluorine spectra in liver and kidney” value (liver or kidney; both liver and kidney) of the same compound?
The value was “only a single peak which was the same as the spectrum from a solution of sodium [2-(trifluoromethyl)benzamido]acetate”.

What about the “fluorine signal intensity in kidney” value (liver or kidney; kidney) of the same compound?
Its value is “peaked very rapidly in the kidney and remained elevated for several minutes”.

And the “fluorine signal intensity in liver” value (liver or kidney; liver versus kidney)?
The value was “less than that for the kidney and took a longer time to peak”.

And the “fluorine concentrations in kidney, urine and blood” value [1]?
The value was “highest concentrations of fluorine”.

And the “fluorine in other tissue specimens” value ([1]; specimens other than kidney, urine, blood)?
Its value is “minimal fluorine detected”.
